Measurements: patent publication US6287813A, “Antibiotic-based gene regulation system” (Cistronics Cell Technology GmbH, priority 1999, dated 2001)

Target: T1, Pip/PPTR (Streptomyces coelicolor, UniProt Q9ADN3)
T1 construct: gel retardation with ptr promoter DNA (PPTR) of S. pristinaespiralis
T1 sequence (Q9ADN3 1-252): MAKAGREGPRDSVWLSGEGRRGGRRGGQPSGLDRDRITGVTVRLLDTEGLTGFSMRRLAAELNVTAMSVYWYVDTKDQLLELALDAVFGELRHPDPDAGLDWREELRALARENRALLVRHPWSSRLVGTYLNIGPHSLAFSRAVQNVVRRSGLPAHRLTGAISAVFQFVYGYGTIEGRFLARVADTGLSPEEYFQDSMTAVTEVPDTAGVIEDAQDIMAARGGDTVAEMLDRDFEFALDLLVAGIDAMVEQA
Test: Gel retardation assay of Pip/PPTR interaction
Format: binding
Conditions: Pip 0.2 pmol titrated with 50 pmol to 0.01 pmol antibiotic
Excerpt: FIG. 1: Gel retardation assay showing Pip/PPTR interaction. PPTR of S. pristinaespiralis contains 3 dyad symmetrical binding sites (lane A; PPTR in the absence of Pip) all of which are saturated at relatively large amounts of purified Pip (0.4 pmol; […]) resulting in a single shifted band. Smaller amounts of Pip (0.02 pmol) presented an intermediate situation in which all possible permutations of site occupancy are represented in three distinct retarded bands (lane C). Pip (0.2 pmol lanes D-M) was titrated with a range of PI from 50 pmol to 0.01 pmol (lanes D-H; D: 50 pmol; E: 10 pmol; F: 1 pmol; G: 0.1 pmol; H: 0.01 pmol). […]
Chinese hamster ovary cells (CHO-K1, ATCC: CCL 61), Baby hamster kidney cells (BHK-21, ATCC: CRL-8544), and HeLa cells (ATCC: CRL-7923) as well as stable cell lines CHO-PIT1, CHO-PIT2, CHO-TWIN195, CHO-TWIN1108 and CHO-PIT1-SEAP were cultured as described before (Fussenegger et al., 1998, Nat. Biotechnol. 16,468-472) in the presence of appropriate antibiotics: G418 400 μg/ml; zeocin 100 μg/ml. […] Transient transfected cells were routinely analyzed after 48 h for GFP or SEAP expression using fluorescence microscopy and p-nitrophenolphosphate-based light absorbance timecourse, respectively, as described before (Fussenegger et al., 1998, Nat. Biotechnol. 16, 468-472; Berger et al., 1988, Gene 66, 1-10 b). […]

pristinamycin I [PI]
Release of Pip from PPTR: completely released
